# The source made the active and inactive calls. The calls are words filed in the database; no cut-off is given here.
# How the values were obtained:
# HL-60 = test: Induction of cell differentiation in human HL60 cells assessed as maturing morphological changes at 30 to 1000 nM after 48 hrs by Wright's-Giemsa staining-based forty microscopic view assay; assay type: functional
# [1] = molecular target: T1, Vitamin D3 receptor (Bos taurus) (UniProt Q28037); test: Displacement of [3H]-1alpha,25-dihydroxyvitamin D3 from bovine thymus VDR measured after overnight incubation relative to 1alpha,25-dihydroxyvitamin D3
# T1 sequence (whole entry): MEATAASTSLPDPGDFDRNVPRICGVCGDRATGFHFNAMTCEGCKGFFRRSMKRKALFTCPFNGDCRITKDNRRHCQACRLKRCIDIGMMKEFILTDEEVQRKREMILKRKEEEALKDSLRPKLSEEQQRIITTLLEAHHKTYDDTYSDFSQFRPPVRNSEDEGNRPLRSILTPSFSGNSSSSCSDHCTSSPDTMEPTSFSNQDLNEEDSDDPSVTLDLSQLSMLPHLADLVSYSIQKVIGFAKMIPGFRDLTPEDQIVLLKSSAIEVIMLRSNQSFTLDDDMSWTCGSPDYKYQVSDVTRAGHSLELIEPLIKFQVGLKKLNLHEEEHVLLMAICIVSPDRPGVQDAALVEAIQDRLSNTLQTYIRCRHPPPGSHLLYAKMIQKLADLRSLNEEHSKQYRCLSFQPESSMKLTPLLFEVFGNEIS
# MCF7 = test: Antiproliferative activity against human MCF7 cells assessed as inhibition of proliferation after 72 hrs by MTT assay; assay type: functional, cell-based; details: MCF7, 72 h
Structure (SMILES),Activity (HL-60),Ratio [1],IC50 (MCF7) [µM]
C=C1/C(=C\C=C2/CCC[C@]3(C)[C@@H]([C@H](C)CCCC(C)(C)O)CC[C@@H]23)C[C@@H](O)C[C@@H]1O,Active,–,–
C=C1/C(=C\C=C2/CCC[C@]3(C)C(c4cccc(CCCC(C)(C)O)c4)=CC[C@@H]23)C[C@@H](O)C[C@@H]1O,Active,0.015,7.56
C=C1CC[C@H](O)C/C1=C/C=C1\CCC[C@]2(C)[C@@H]([C@H](C)CCCC(C)(C)O)CC[C@@H]12,–,0.01,–
C=C1/C(=C\C=C2/CCC[C@]3(C)C(c4ccccc4CCCC(C)(C)O)=CC[C@@H]23)C[C@@H](O)C[C@@H]1O,Active,0.01,7.08

# Source: ChEMBL document CHEMBL3352449, “Synthesis and biological evaluation of 1α,25-dihydroxyvitamin D3 analogues with aromatic side chains attached at C-17” (Eur J Med Chem, 2014)
